Structures are written as SMILES.

The results in this text go back to patent EP0097633B1, “Determination of the sensitivity of virus to antiviral agents” (Wahren, Britta, priority 1982, dated 1984).

Assay [1] deals with virus isolate from an eye IDU treated with without result. The assay is described as follows: VSA on a virus isolate from an eye treated with IDU without result (Example 3). It is filed as cell-based. The procedure:
(§1) Sterile plastic plates comprising 24 wells, each having a culture surface of 2.5 cm^2 and containing about 5 x 10^5 HL-cells/well were inoculated with 0.1 ml of virus dilutions as above. Such of the above virus dilutions only containing a small amount of virus are first cultured for 3 days in HL-cells, on which virus replicates, after which the virus isolate from one cell passage is taken out, is diluted 1:30 and 0.1 ml of the dilutions is added to the plates as indicated above. The cells are then incubated at a temperature of 32-37°C, with addition of different antiviral agents, and without any addition of antiviral agent to obtain reference values. Each antiviral agent is added in a dilution series comprising six different concentrations (Cl-C6), some of which correspond to desired serum concentrations for the treatment of patients. In table 1 is indicated the antiviral agents and concentrations thereof used.
(§2) The supernatant is sucked off and in order to achieve cell disrupture 800 µl of distilled water are added to the cells on the plates. The plates are frozen at -20°C and after some time sufficient for formation of ice crystals (about 15 min) the plates are thawed to room temperature for measurement of virus antigen. If desired, the plates can be preserved in a frozen state for a long time before they are thawed in order to carry out the measurement of virus antigen. When the plates have thawed 200 µl of NaCI of 4.5% are added to the cells in order to obtain an isotonic solution.
(§3) The amount of virus antigen formed is thereafter determined as follows. Guinea pig anti-HSV-serum is diluted in 0.1-M sodium carbonate buffer. 0.1 ml of the serum dilution is filled per well in microplates (M 29 AR, Dynatech, Zug, Switzerland) which have been washed three times with NaCI-solution of 0.9% containing 0.05% of Tween® 20, after which the plates are incubated for 16 hours at room temperature. The plates can be preserved sealed with their contents at +4°C up to 2-3 months.
(§4) 0.1 ml of the cell material obtained above or a known virus antigen is filled into plates treated with antibody and is incubated for 4 hours at +4°C. After washing with the washing solution indicated above 0.1 ml of rabbit anti-HSV is added and the plates are incubated for 2 hours at +37°C. The plates are washed and 0.1 ml of conjugate is added, after which they are incubated for 2 hours at +37°C. The conjugate consists of pig anti-rabbit IgG conjugated with alkaline phosphatase (Orion Diagnostica, Helsinki, Finland) in a dilution of 1:100. Non-bonded conjugate is washed off before 100 pl of the substrate p-nitrophenyl phosphate (1 mg/ml, Sigma, St Louis, MO, USA) are added. For dilution of the substrate 1 M diethanol buffer, pH 9.8 containing 0.5 x 10-^3 M MgC12 is used and for dilution of antisera and conjugate phosphate buffer (PBS), pH 7.3-7.4 with 0.5% of Tween® 20, 0.5% of BSA (bovine serum albumin) and 0.02% of NaN3 is used. The reaction is stopped after 20-60 min with 0.025 ml of 5 M NaOH. The absorbance (A) is thereafter read at 405 nm with Titertek Multiskan® (Flow Laboratories, Irvine, Scotland).

The test system of assay [2] is HSV-1. The assay is described as follows: VSA on HL-cells infected with HSV-1, virus antigen measured in supernatant and in cells disrupted with distilled water (Example 2). The assay is classed as cell-based. The conditions noted are these: for Absorbance values at 405 nm: 3 days. The procedure:
as §1, §2
as §3, with “months. The optimal antibody concentration has been determined by antibody titration with the respective antigen and control antigen.” for “months.”
as §4, with “Scotland). Absorbance values then obtained at the concentrations C1―C6 of the antiviral agents from table 1 and at the concentration Co = O are indicated in the following table 2.” for “Scotland).”
HL-cells infected with HSV-1 were incubated in the same way as in example 1 in the presence of Ara-A and IDU in the concentrations indicated in table 1 for 3 days. Reference culture without addition of antiviral agent was also carried out. The virus antigen in the supernatant (---) and in cells disrupted with distilled water (-) was thereafter measured in the same way as in example 1, and the results are found in table 3 and Fig. 2.

Setting [3] is: C1: Ara-A 5, ACV 0.15, PFA 25, IDU 0.5 μM, C0 (no agent) 1.605.
Where [4] appears, read: C2: Ara-A 10, ACV 0.31, PFA 50, IDU 1 μM, C0 1.605.
Where [5] appears, read: C3: Ara-A 20, ACV 0.63, PFA 100, IDU 2 μM, C0 1.605.
Where [6] appears, read: C4: Ara-A 40, ACV 1.25, PFA 200, IDU 4 μM, C0 1.605.
The mark [7] stands for this setting: C5: Ara-A 80, ACV 2.5, PFA 400, IDU 8 μM, C0 1.605.
Setting [8] is: C6: Ara-A 160, ACV 5, PFA 800, IDU 16 μM, C0 1.605.
[9] abbreviates: cells disrupted with distilled water, C1: Ara-A 5, IDU 0.5 μM.
Setting [10] is: cells disrupted with distilled water, C2: Ara-A 10, IDU 1 μM.
Setting [11] is: cells disrupted with distilled water, C3: Ara-A 20, IDU 2 μM.
[12] abbreviates: cells disrupted with distilled water, C4: Ara-A 40, IDU 4 μM.
Setting [13] is: cells disrupted with distilled water, C5: Ara-A 80, IDU 8 μM.
The mark [14] stands for this setting: cells disrupted with distilled water, C6: Ara-A 160, IDU 16 μM.
The mark [15] stands for this setting: supernatant, C1: Ara-A 5, IDU 0.5 μM.
Where [16] appears, read: supernatant, C2: Ara-A 10, IDU 1 μM.
[17] abbreviates: supernatant, C3: Ara-A 20, IDU 2 μM.
[18] abbreviates: supernatant, C4: Ara-A 40, IDU 4 μM.
Where [19] appears, read: supernatant, C5: Ara-A 80, IDU 8 μM.
[20] abbreviates: supernatant, C6: Ara-A 160, IDU 16 μM.

As for `O=c1[nH]c(=O)n([C@H]2C[C@H](O)[C@@H](CO)O2)cc1I` [IDU, iododeoxyuridine], the adsorbance values was 1.207 in assay [1] (setting [3]); 1.165 in assay [1] (setting [4]); 0.951 in assay [1] (setting [5]); 0.739 in assay [1] (setting [6]); 0.706 in assay [1] (setting [7]); 0.502 in assay [1] (setting [8]). Besides, the “Absorbance values at 405 nm” value amounted to 1.130 ± 0.052 in assay [2] (setting [9]); 1.075 ± 0.054 in assay [2] (setting [10]); 0.863 ± 0.030 in assay [2] (setting [11]); 0.513 ± 0.025 in assay [2] (setting [12]); 0.142 ± 0.009 in assay [2] (setting [13]); 0.119 in assay [2] (setting [14]). Further, the “Absorbance values at 405 nm” value was 0.320 ± 0.037 in assay [2] (setting [15]); 0.259 ± 0.005 in assay [2] (setting [16]); 0.201 ± 0.025 in assay [2] (setting [17]); 0.142 ± 0.019 in assay [2] (setting [18]); 0.091 ± 0.017 in assay [2] (setting [19]); 0.143 in assay [2] (setting [20]).
For `Nc1ncnc2c1ncn2C1OC(CO)C(O)C1O` (stereo not shown) [Ara-A, adenosine-arabinoside], the adsorbance values in assay [1] (setting [3]) amounted to 1.572; in assay [1] (setting [4]), 1.482; in assay [1] (setting [5]) it was 0.750; in assay [1] (setting [6]) it was 0.155; in assay [1] (setting [7]), 0.071; in assay [1] (setting [8]), 0.039. Further, the “Absorbance values at 405 nm” value in assay [2] (setting [9]) was found to be 1.130 ± 0.052; in assay [2] (setting [10]) it was 1.073 ± 0.054; in assay [2] (setting [11]), 0.863 ± 0.030; in assay [2] (setting [12]), 0.513 ± 0.025; in assay [2] (setting [13]) it was 0.142 ± 0.009; in assay [2] (setting [14]), 0.119. For the same compound, the “Absorbance values at 405 nm” value was 0.384 ± 0.025 in assay [2] (setting [15]); 0.323 ± 0.010 in assay [2] (setting [16]); 0.276 ± 0.006 in assay [2] (setting [17]); 0.184 ± 0.009 in assay [2] (setting [18]); 0.099 ± 0.006 in assay [2] (setting [19]); 0.099 in assay [2] (setting [20]). Besides, in assay [2] (read from Fig. 2, disrupted cells), the “50% of inhibition of antigen formation in the cells” value is “in clinically relevant concentrations”.
